# From ChEMBL document CHEMBL1201862, “PubChem BioAssay data set” (2004)
#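 Cultured in 96-well plates, cells were exposed to test compound for 48 hours across five concentrations. GI50 is the concentration that inhibits growth by half.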 The source made the active and inactive calls. Cut-off read from the data, not from the text of the source: active = GI50 up to about 1.1 µM and inactive = higher.
# Legend:
# Test in all cases: NCI anticancer screen, dose series, 48 h
# M14 = test system: M14
# SK-OV-3 = test system: SK-OV-3
# UO-31 = test system: UO-31
# OVCAR-8 = test system: OVCAR-8
# RPMI-8226 = test system: RPMI-8226
# NCI-H460 = test system: NCI-H460
# OVCAR-4 = test system: OVCAR-4
# NCI-H522 = test system: NCI-H522
# HOP-18 = test system: HOP-18
# EKVX = test system: EKVX
# SW-620 = test system: SW-620
# HL-60 = test system: HL-60
# OVCAR-3 = test system: OVCAR-3
# K562 = test system: K562
# LXFL 529 = test system: LXFL 529
# SK-MEL-2 = test system: SK-MEL-2
# U-251 = test system: U-251
# OVCAR-5 = test system: OVCAR-5
# Malme-3M = test system: Malme-3M
# HT-29 = test system: HT-29
# CCRF-CEM = test system: CCRF-CEM
# UACC-257 = test system: UACC-257
# SR = test system: SR
# M19-MEL = test system: M19-MEL
# DMS-114 = test system: DMS-114
# COLO 205 = test system: COLO 205
# A549 = test system: A549
# HCT-116 = test system: HCT-116
# DLD-1 = test system: DLD-1
# DMS-273 = test system: DMS-273
# SF-268 = test system: SF-268
# TK-10 = test system: TK-10
# IGROV-1 = test system: IGROV-1
# SK-MEL-5 = test system: SK-MEL-5
# KM12 = test system: KM12
# KM-20L2 = test system: KM-20L2
# SNB-78 = test system: SNB-78
# SF-539 = test system: SF-539
# ACHN = test system: ACHN
# 786-0 = test system: 786-0
# RXF 393 = test system: RXF 393
# UACC-62 = test system: UACC-62
# SF-295 = test system: SF-295
# SNB-75 = test system: SNB-75
# NCI-H23 = test system: NCI-H23
# NCI-H226 = test system: NCI-H226
# LOX IMVI = test system: LOX IMVI
# MOLT-4 = test system: MOLT-4
# SN12C = test system: SN12C
# SNB-19 = test system: SNB-19
# HOP-62 = test system: HOP-62
# XF498 = test system: XF498
# HCC 2998 = test system: HCC 2998
# CAKI-1 = test system: CAKI-1
# HCT-15 = test system: HCT-15
# A498 = test system: A498
# SK-MEL-28 = test system: SK-MEL-28
# RXF 631 = test system: RXF 631
structure (smiles),measurement,setting,value
CC1(C)Cc2cc(C(=O)O)c3c(c2C1=O)COCC3,GI50,M14,> 100 µM (inactive)
same,GI50,SK-OV-3,> 100 µM (inactive)
same,GI50,UO-31,> 100 µM (inactive)
same,GI50,OVCAR-8,> 100 µM (inactive)
same,GI50,RPMI-8226,> 100 µM (inactive)
same,GI50,NCI-H460,> 100 µM (inactive)
same,GI50,OVCAR-4,> 100 µM (inactive)
same,GI50,NCI-H522,32.4 µM (inactive)
same,GI50,HOP-18,> 100 µM (inactive)
same,GI50,EKVX,> 100 µM (inactive)
same,GI50,SW-620,> 100 µM (inactive)
same,GI50,HL-60,> 100 µM (inactive)
same,GI50,OVCAR-3,> 100 µM (inactive)
same,GI50,K562,> 100 µM (inactive)
same,GI50,LXFL 529,> 100 µM (inactive)
same,GI50,SK-MEL-2,> 100 µM (inactive)
same,GI50,U-251,> 100 µM (inactive)
same,GI50,OVCAR-5,> 100 µM (inactive)
same,GI50,Malme-3M,> 100 µM (inactive)
same,GI50,HT-29,> 100 µM (inactive)
same,GI50,CCRF-CEM,> 100 µM (inactive)
same,GI50,UACC-257,> 100 µM (inactive)
same,GI50,SR,> 100 µM (inactive)
same,GI50,M19-MEL,> 100 µM (inactive)
same,GI50,DMS-114,> 100 µM (inactive)
same,GI50,COLO 205,> 100 µM (inactive)
same,GI50,A549,> 100 µM (inactive)
same,GI50,HCT-116,> 100 µM (inactive)
same,GI50,DLD-1,> 100 µM (inactive)
same,GI50,DMS-273,> 100 µM (inactive)
same,GI50,SF-268,> 100 µM (inactive)
same,GI50,TK-10,> 10 µM (inactive)
same,GI50,IGROV-1,> 100 µM (inactive)
same,GI50,SK-MEL-5,> 100 µM (inactive)
same,GI50,KM12,> 100 µM (inactive)
same,GI50,KM-20L2,> 100 µM (inactive)
same,GI50,SNB-78,> 100 µM (inactive)
same,GI50,SF-539,> 100 µM (inactive)
same,GI50,ACHN,> 100 µM (inactive)
same,GI50,786-0,> 100 µM (inactive)
same,GI50,RXF 393,> 100 µM (inactive)
same,GI50,UACC-62,> 100 µM (inactive)
same,GI50,SF-295,> 100 µM (inactive)
same,GI50,SNB-75,> 100 µM (inactive)
same,GI50,NCI-H23,> 100 µM (inactive)
same,GI50,NCI-H226,> 100 µM (inactive)
same,GI50,LOX IMVI,> 100 µM (inactive)
same,GI50,MOLT-4,> 100 µM (inactive)
same,GI50,SN12C,> 100 µM (inactive)
same,GI50,SNB-19,> 100 µM (inactive)
same,GI50,HOP-62,> 100 µM (inactive)
same,GI50,XF498,> 100 µM (inactive)
same,GI50,HCC 2998,> 100 µM (inactive)
same,GI50,CAKI-1,> 100 µM (inactive)
same,GI50,HCT-15,> 100 µM
same,GI50,A498,> 100 µM (inactive)
CCOc1nc(OCC)nc(-c2cccn2-c2ccccc2)n1,GI50,M14,38.3 µM (inactive)
same,GI50,SK-OV-3,33 µM (inactive)
same,GI50,UO-31,22.1 µM (inactive)
same,GI50,OVCAR-8,35.5 µM (inactive)
same,GI50,NCI-H460,29 µM (inactive)
same,GI50,OVCAR-4,25.8 µM (inactive)
same,GI50,NCI-H522,32.7 µM (inactive)
same,GI50,EKVX,38.2 µM (inactive)
same,GI50,SK-MEL-28,35.4 µM (inactive)
same,GI50,SW-620,50.4 µM (inactive)
same,GI50,HL-60,21.7 µM (inactive)
same,GI50,OVCAR-3,20.7 µM (inactive)
same,GI50,K562,30.5 µM (inactive)
same,GI50,SK-MEL-2,34.8 µM (inactive)
same,GI50,U-251,18.5 µM (inactive)
same,GI50,OVCAR-5,74.1 µM (inactive)
same,GI50,Malme-3M,21.4 µM (inactive)
same,GI50,HT-29,34.6 µM (inactive)
same,GI50,CCRF-CEM,29.6 µM (inactive)
same,GI50,RXF 631,57.5 µM (inactive)
same,GI50,UACC-257,40.5 µM (inactive)
same,GI50,SR,26.3 µM (inactive)
same,GI50,M19-MEL,37.2 µM (inactive)
same,GI50,DMS-114,27.7 µM (inactive)
same,GI50,A549,37.1 µM (inactive)
same,GI50,HCT-116,37.3 µM (inactive)
same,GI50,DMS-273,30.1 µM (inactive)
same,GI50,SF-268,46.5 µM (inactive)
same,GI50,TK-10,23 µM (inactive)
same,GI50,IGROV-1,29.6 µM (inactive)
same,GI50,KM12,28.5 µM (inactive)
same,GI50,SNB-78,32.3 µM (inactive)
same,GI50,SF-539,51.5 µM (inactive)
same,GI50,ACHN,32.2 µM (inactive)
same,GI50,786-0,45.1 µM (inactive)
same,GI50,RXF 393,29.5 µM (inactive)
same,GI50,UACC-62,27.7 µM (inactive)
same,GI50,SF-295,33.7 µM (inactive)
same,GI50,NCI-H23,30.8 µM (inactive)
same,GI50,NCI-H226,32.7 µM (inactive)
same,GI50,MOLT-4,17.7 µM (inactive)
same,GI50,SN12C,45.6 µM (inactive)
same,GI50,SNB-19,31.4 µM (inactive)
same,GI50,HOP-62,46.1 µM (inactive)
same,GI50,HCC 2998,32.3 µM (inactive)
same,GI50,CAKI-1,30.5 µM (inactive)
same,GI50,HCT-15,34.6 µM
same,GI50,A498,47.4 µM (inactive)
